Biological target: T1, TAPL Y405A mutant (Mus musculus, UniProt Q9JJ59, Y405A)
T1 construct: thrombin cleavage site (C); eGFP (C); 10XHis (C); made in house; host or cells: Trichoplusia ni High Five (Hi5) insect cells, baculovirus (pVL1393)
T1 sequence (Q9JJ59 143-762 Y405A): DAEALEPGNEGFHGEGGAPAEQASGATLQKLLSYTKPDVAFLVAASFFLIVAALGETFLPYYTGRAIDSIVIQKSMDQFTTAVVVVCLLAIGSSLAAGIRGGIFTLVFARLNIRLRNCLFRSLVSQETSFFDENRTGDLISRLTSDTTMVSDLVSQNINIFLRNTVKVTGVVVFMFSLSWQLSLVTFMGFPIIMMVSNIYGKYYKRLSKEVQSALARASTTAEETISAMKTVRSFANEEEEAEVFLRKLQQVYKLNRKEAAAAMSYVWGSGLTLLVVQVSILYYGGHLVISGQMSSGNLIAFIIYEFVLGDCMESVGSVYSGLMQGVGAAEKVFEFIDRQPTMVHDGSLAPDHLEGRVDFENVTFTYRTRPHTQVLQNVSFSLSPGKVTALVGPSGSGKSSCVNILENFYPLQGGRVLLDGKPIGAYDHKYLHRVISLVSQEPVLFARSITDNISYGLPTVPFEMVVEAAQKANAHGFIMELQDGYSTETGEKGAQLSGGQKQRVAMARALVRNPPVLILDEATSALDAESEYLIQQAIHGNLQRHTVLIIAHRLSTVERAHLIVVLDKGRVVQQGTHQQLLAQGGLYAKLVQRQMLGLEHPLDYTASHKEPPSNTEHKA
Assay: Dithionite-based flip-flop assay, Y405A proteoliposomes
Assay type: biochemical
Procedure: All lipids used in reconstitution were purchased from Avanti Polar Lipids, Inc. (purity > 99%). The in vitro flip–flop assay was performed using NBD* dye-labeled proteoliposomes as described previously. Briefly, E. coli polar lipids and egg PC were mixed in a 1:1 molar ratio, and 0.5% (mol/mol) NBD*-lipid was added. The lipid mixture was then dried under nitrogen gas. The NBD*-lipids used were 18:1-06:0 NBD*-PS (1-oleoyl-2-{6-[(7-nitro-2-1,3-benzoxadiazol-4-yl)amino]hexanoyl}-sn-glycero-3-phosphoserine), 18:1-06:0 NBD*-PC (1-oleoyl-2-{6-[(7-nitro-2-1,3-benzoxadiazol-4-yl)amino]hexanoyl}-sn-glycero-3-phosphocholine), 18:1-06:0 NBD*-PG (1-oleoyl-2-{6-[(7-nitro-2-1,3-benzoxadiazol-4-yl)amino]hexanoyl}-sn-glycero-3-[phospho-rac-(1-glycerol)]), 18:1-06:0 NBD*-PE (1-oleoyl-2-{6-[(7-nitro-2-1,3-benzoxadiazol-4-yl)amino]hexanoyl}-sn-glycero-3-phosphoethanolamine), and 25-NBD*-Cholesterol (25-[N-[(7-nitro-2-1,3-benzoxadiazol-4-yl)methyl]amino]−27-norcholesterol). Thin lipid films were solubilized in 20 mM HEPES–NaOH pH 8.0, 200 mM NaCl and 5% (v/v) glycerol, incubated at RT for 30 min and subjected to 5 freeze–thaw cycles. After extrusion with a Mini-Extruder at 65 °C, final lipid concentrations were determined by phosphorus assays. Briefly, 10 μL of extruded lipid was added to 10 μL of 2% (w/v) ammonium molybdate and 300 μL of concentrated perchloric acid. […] Lipid concentrations were calculated from the absorbance at 820 nm using a standard curve prepared with NaH2PO4 solution. […]
To measure the flip–flop activity, 10 μL of 2 mM NBD*-labeled proteoliposomes were added to 100 μL of reaction buffer (20 mM HEPES–NaOH pH 8.0, 200 mM NaCl, 5 mM ATP and 5% (v/v) glycerol) in the presence of 2 mM MgCl2 (or NaCl), and incubated at 37 °C for 1 h. The mixture was transferred to a 96-well plate and time-dependent fluorescence (λex/λem = 460/538 nm) was recorded every 30 s for 26 min using a fluorescence spectrophotometer (Gemini XPS). After the baseline fluorescence had stabilized, 10 mM sodium dithionite was added to quench the fluorescence of NBD*-lipid present in the outer leaflets of the liposomes. The initial rapid drop and subsequent slow decline in fluorescence intensity were monitored. […] The net percentage of NBD*-lipid translocated across the lipid bilayer was calculated from the following equation[72]: the percentage of protected NBD*-lipid in the inner leaflet = [(FD−F0)/(FT−F0)]×100, and that of accessible NBD*-lipid in the outer leaflet = [(FT−FD)/(FT−F0)]×100, where FT is the total fluorescence of the sample before the addition of dithionite, FD is the fluorescence of the sample after quenching with dithionite, and F0 is any residual fluorescence of the sample after solubilization with Triton X-100. […]

## CCCCCCCC/C=C\CCCCCCCC(=O)OC[C@H](COP(=O)(O)OC[C@H](N)C(=O)O)OC(=O)CCCCCNc1ccc([N+](=O)[O-])c2nonc12 [NBD*-PS, 1-oleoyl-2-{6-[(7-nitro-2-1,3-benzoxadiazol-4-yl)amino]hexanoyl}-sn-glycero-3-phosphoserine]
Mg2+/ATP minus Na+/ATP, mean n=3
  NBD*-PS fluorescence intensity (net percentage transported outer to inner leaflet): 1.556%
Replicate I
  NBD*-PS fluorescence intensity (net percentage transported): 1.636%
Replicate II
  NBD*-PS fluorescence intensity (net percentage transported): 1.459%
Replicate III
  NBD*-PS fluorescence intensity (net percentage transported): 1.571%

Reference: article PMC9532399, “The lysosomal transporter TAPL has a dual role as peptide translocator and phosphatidylserine floppase” (Nature Communications, 2022)
